pIC50: −log10 of the molar value. Each block holds one compound with its values, some of them ahead of it.
Key:
[1] = target: T1, LTB4 receptors (Homo sapiens, UniProt Q15722); test: Study of binding to LTB4 (Leukotriene B4) receptors on human PMN, displacement of [^3 H]LTB4; conditions: for pIC50: human PMN (10^6 cells), 1 nM [^3 H]LTB4, 20 min at 4° C., read-out: 50% inhibition (IC50) of the binding of [^3 H]LTB4
T1 construct: Human PMN are isolated from heparinized venous blood of healthy donors; endogenous in cells; host or cells: human polymorphonuclear leukocytes (PMN) from venous blood of healthy donors
T1 sequence (Q15722 whole entry): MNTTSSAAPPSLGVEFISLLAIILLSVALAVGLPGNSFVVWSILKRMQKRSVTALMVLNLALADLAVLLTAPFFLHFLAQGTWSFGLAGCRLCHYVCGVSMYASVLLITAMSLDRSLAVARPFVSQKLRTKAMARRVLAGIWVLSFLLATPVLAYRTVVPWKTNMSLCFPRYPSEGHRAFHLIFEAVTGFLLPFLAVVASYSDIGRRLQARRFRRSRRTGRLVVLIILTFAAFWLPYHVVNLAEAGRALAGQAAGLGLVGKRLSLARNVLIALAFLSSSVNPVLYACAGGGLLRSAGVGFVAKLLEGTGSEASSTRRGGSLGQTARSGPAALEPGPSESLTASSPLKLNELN
Procedure: Human PMN are isolated from heparinized venous blood of healthy donors by sedimentation on dextran T500. The supernatant is centrifuged on Ficoll Paque®, and the residual erythrocytes are removed by hypotonic lysis. The PMN are washed with Hank's isotonic saline solution (HBSS) free from Ca^2+ and Mg^2+.
[…] is verified by the trypan blue exclusion technique.
Study of binding to LTB4 receptors
Binding to PMN is carried out in HBSS free from Ca^2+ and Mg^2+ containing 5 mM HEPES buffer.
The PMN (10^6 cells) are incubated for 20 min at 4° C. with 1 nM [^3 H]LTB4 in the presence or absence of non-radioactive LTB4 or of the compounds of the invention at various concentrations.

[2] = tested on: swelling of the ear of a mouse; test: Topical inflammatory model (psoriasis), arachidonic acid ear swelling; format: in vivo; conditions: dose of 20 mg/ear, arachidonic acid 2 mg, 60 min
Procedure: STUDY OF THE ACTIVITY OF THE COMPOUNDS OF THE INVENTION WITH RESPECT TO A TOPICAL INFLAMMATORY MODEL (psoriasis)
The present test enables the anti-inflammatory activity of the compounds of the invention with respect to such dermal lesions to be tested.
(Current Test Protocols-Pharmacology Service-Panlabs-June 92).
Arachidonic acid (2 mg in 20 μl of an acetone/pyridine/water (7:2:1) mixture) is applied topically to the anterior and posterior surfaces of the right ear of a mouse 30 min after a similar application of the test compound or of the vehicle (20 μl). The swelling of the ear is measured by a Dyer type gauge after 60 min as an index of the inflammation.
The percentage inhibition is calculated according to the formula: Ic-lt/Ic×100, in which Ic and It represent the increase in thickness (in mm) of the ear in the control mouse and in the treated mouse, respectively.

[3] = tested on: LTB4-induced contraction of parenchymatous strips of guinea pig lung; test: LTB4-induced contraction of isolated parenchymatous lung strips; design: species or system DUNKIN HARTLEY guinea pig; conditions: contraction stimulated with 30 nM LTB4, compound added 2 min before; read-out: 50% inhibition of the contraction (IC50)
Procedure: STUDY OF THE ACTIVITY OF THE COMPOUNDS OF THE INVENTION WITH RESPECT TO THE CONTRACTION OF PARENCHYMATOUS LUNG STRIPS
LTB4 has a contracting effect on isolated parenchymatous strips of guinea pig lung. The antagonist activity of the compounds of the invention with respect to this LTB4 -induced contraction is tested.
Parenchymatous strips of DUNKIN HARTLEY guinea pig lung are cut and placed in baths containing Tyrode's solution oxygenated with a stream of gas (95% O2 /5% CO2). The strips are connected to a polygraph (GOULD Statham) with an isometric tension of 400 mg. After 1 h of equilibrium, 1 μM mepyramine and 10 μM atroprine are added to the Tyrode's solution, and the compounds of the invention are tested for their antagonist activities. The contractile responses are recorded over 5 min. The antagonist activities of the compounds of the invention are tested by adding these compounds to the bath 2 min before stimulation of contraction with 30 nM LTB4.

[4] = tested on: human PMN; test: Inhibition of LTB4-induced chemotaxis of human PMN in vitro (BOYDEN-KELLER chambers); format: cell-based
Procedure: STUDY OF THE ACTIVITY OF THE COMPOUNDS OF THE INVENTION WITH RESPECT TO THE CHEMOTAXIS OF HUMAN PMN IN VITRO
PMN incubated in HBSS without Ca^2+ or Mg^2+ are labeled with ^51 chromium (1 μL Ci/10^6 cells) for 1 hour at 37° C. and then washed twice with HBSS.
The PMN are then resuspended at a concentration of 10^7 cells/cm^3 in Hank's buffer with the addition of 1% bovine albumin. LTB4 and the compounds of the invention dissolved in Hank buffer are introduced into the lower part of BOYDEN-KELLER chambers, two cellulose nitrate filters (Millipore, 3 μm) are placed on each well and the upper part of the chambers is filled with the cell suspension (Methods Enzymol 1988, vol. 162, pp 59-64).
The chambers are incubated for 150 min at 37° C. under an atmosphere of 95% humidified air and 5% CO2.
The radioactivity of the lower filter is measured with a scintillation spectrometer (Beckman LS 3801).

[5] = Stability of the solution of the salt; format: physicochemical; conditions: sodium salt, aqueous solution
[6] = Solubility of the salt in water; format: physicochemical; conditions: sodium salt

pIC50 [1]: 6.70
pIC50 [3]: 7.40
SMILES: O=C(O)C[C@]1(O)CCC[C@H](/C=C/C(O)CCCCc2ccccc2)C1 (relative stereo) [Example 7, (1S*,3S*)-1-HYDROXY-3-[(3R*S*,E)-3-HYDROXY-7-PHENYL-1-HEPTEN-1-YL]-1-CYCLOHEXANE-ACETIC ACID]
decrease in the volume of the ear [2]: 30%
inhibition of the action of LTB4 on cell migration (in words) ([4]; up to a concentration of 50 μM): total inhibition

Stability of the solution [5]: more than 18 months
solubility [6]: 100 mg/mL
SMILES: O=C(O)C[C@]1(O)CCC[C@H](/C=C/C(O)CCCCc2ccccc2)C1 (relative stereo) [Sodium (1S*,3S*)-1-hydroxy-3-[(3R*S*,E)-3-hydroxy-7-phenyl-1-hepten-1-yl]-1-cyclohexaneacetate]

SMILES: CN(C)C(=O)C[C@]1(O)CCC[C@H](/C=C/C(O)CCCCc2ccccc2)C1 (single isomer, unassigned) [Example 69, (1S*,3S*)-1-HYDROXY-3-[(3R*S*,E)-3-HYDROXY-7-PHENYL-1-HEPTEN-1-YL]CYCLOHEXANE-1-(N,N-DIMETHYLACETAMIDE)]
pIC50 [1]: 6.30

SMILES: CN(C)C(=O)C[C@@]1(O)CCC[C@H](/C=C/C(O)CCCCc2ccccc2)C1 (single isomer, unassigned) [Example 71, (1R*,3S*,E)-1-HYDROXY-3-[(3R*S*,E)-3-HYDROXY-7-PHENYL-1-HEPTEN-1-YL]CYCLOHEXANE-1-(N,N-DIMETHYLACETAMIDE)]
pIC50 [1]: 5.70

SMILES: CCCCC/C=C\C[C@@H](O)/C=C/C=C/C=C\[C@@H](O)CCCC(=O)O [LTB4, Leukotriene B4, reference compound]
displacement of [^3 H]LTB4 from its specific binding sites (in words) ([1]; human PMN, [^3 H]LTB4 (1 nM), increasing doses of unlabeled LTB4): dose-dependent displacement
effect on the spontaneous migration of human PMN (in words) ([4]; LTB4 0.1 to 100 nM, BOYDEN-KELLER chambers): causes an activation of the spontaneous migration
